Experimental data published in the supplement of paper PMC10307832.

How the values were obtained:
Assay in all cases: relative viability (nuclei count vs DMSO), 5 days (fraction); higher = more cells survive
[1] = compound: C1=CC(=CC=C1NC(=S)NNC2=C(C=C(C=C2[N+](=O)[O-])C(F)(F)F)[N+](=O)[O-])F [Kobe2602] + CC(=O)c1c(C)c2cnc(Nc3ccc(N4CCNCC4)cn3)nc2n(C2CCCC2)c1=O [Palbociclib] (partner 0.5 µM)
Method in brief: (§1)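 Lung cancer cell lines were pin-tool dosed in 1536-well plates on the day after seeding, with either a lone drug or a fixed anchor-drug dose plus five library-drug doses (not always all listed) in √10 steps. Nuclei were counted on 4× images after 5 days. Relative viability is the ratio of treated-well to vehicle-well nuclei counts, with each value a median of duplicate plates.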

[2] = compound: COc1cc2nccc(Oc3ccc(NC(=O)C4(C(=O)Nc5ccc(F)cc5)CC4)cc3)c2cc1OC [Cabozantinib] + CC(C)C[C@H](NC(=O)[C@H](Cc1ccccc1)NC(=O)c1cnccn1)B(O)O [Bortezomib] (partner 0.002 µM)
Method in brief: as §1

[3] = compound: COc1cc2nccc(Oc3ccc(NC(=O)C4(C(=O)Nc5ccc(F)cc5)CC4)cc3)c2cc1OC [Cabozantinib] + COc1cc2c(Oc3ccc(NC(=O)C4(C(=O)Nc5ccc(F)cc5)CC4)cc3F)ccnc2cc1OCCCN1CCOCC1 [Foretinib] (partner 0.25 µM)
Method in brief: as §1

[4] = compound: COc1cc2nccc(Oc3ccc(NC(=O)C4(C(=O)Nc5ccc(F)cc5)CC4)cc3)c2cc1OC [Cabozantinib] + CS(=O)(=O)CCNCc1ccc(-c2ccc3ncnc(Nc4ccc(OCc5cccc(F)c5)c(Cl)c4)c3c2)o1 [Lapatinib] (partner 2 µM)
Method in brief: as §1

| Cell Line | relative viability ([1]; first compound 0.2 µM) | relative viability ([1]; first compound 0.6325 µM) | relative viability ([1]; first compound 2 µM) | relative viability ([1]; first compound 6.325 µM) | relative viability ([1]; first compound 20 µM) | relative viability ([2]; first compound 0.02 µM) | relative viability ([2]; first compound 0.06325 µM) | relative viability ([2]; first compound 0.2 µM) | relative viability ([2]; first compound 0.6325 µM) | relative viability ([2]; first compound 2 µM) | relative viability ([3]; first compound 0.06325 µM) | relative viability ([3]; first compound 0.2 µM) | relative viability ([3]; first compound 0.6325 µM) | relative viability ([3]; first compound 2 µM) | relative viability ([4]; first compound 0.02 µM) | relative viability ([4]; first compound 0.06325 µM) | relative viability ([4]; first compound 0.2 µM) | relative viability ([4]; first compound 0.6325 µM) | relative viability ([4]; first compound 2 µM) | relative viability ([3]; first compound 0.02 µM) |
| --- | --- | --- | --- | --- | --- | --- | --- | --- | --- | --- | --- | --- | --- | --- | --- | --- | --- | --- | --- | --- |
| HCC-78 | 0.522 | 0.446 | 0.479 | 0.535 | 0.52 | 0.409 | 0.436 | 0.339 | 0.227 | 0.21 | 0.684 | 0.549 | 0.541 | 0.518 | 0.458 | 0.922 | 0.348 | 0.305 | 0.286 | – |
| HCC-366 | 0.377 | 0.344 | 0.35 | 0.384 | 0.395 | 1.06 | 1.13 | 1.1 | 0.953 | 1 | 0.948 | 0.95 | 0.905 | 0.888 | 1.08 | 1.07 | 1.05 | 1.13 | 0.957 | 0.941 |
| HCC-827 | 0.528 | 0.574 | 0.621 | 0.489 | 0.53 | 0.981 | 1.1 | – | 1.11 | 1.06 | 1.05 | – | 1.1 | 0.988 | 0.19 | 0.233 | – | 0.183 | 0.179 | 1.05 |
| IA-LM | – | – | – | – | – | 0.912 | 0.782 | 0.78 | 0.998 | 0.958 | 1.15 | 1.22 | 1.23 | 1.24 | 0.92 | 0.91 | 1.02 | 0.946 | 0.808 | 1.15 |
| LCLC-103H | 0.504 | 0.518 | 0.537 | 0.539 | 0.491 | 1.09 | 1.12 | 1.14 | 1.03 | 1.03 | 0.695 | 0.778 | 0.745 | 0.756 | – | – | – | – | – | 0.909 |
| LK-2 | 0.904 | 0.628 | 0.81 | 0.649 | 0.687 | – | – | – | – | – | 1.27 | – | 1.52 | 0.863 | – | 1.15 | 0.929 | 0.948 | 0.856 | – |
| NCI-H358 | 0.14 | 0.128 | 0.142 | 0.144 | 0.138 | – | – | – | – | – | 0.839 | 0.668 | 0.662 | 0.652 | 0.449 | 0.418 | 0.454 | 0.358 | 0.369 | 0.662 |
| NCI-H441 | 0.236 | 0.198 | 0.243 | 0.237 | 0.221 | – | 0.494 | 0.776 | 0.76 | 0.385 | 0.989 | 0.986 | 1.18 | 1.18 | – | – | – | – | – | 1.25 |
| NCI-H522 | 1.13 | 1.1 | 0.915 | 1.11 | 0.993 | – | – | – | – | – | – | – | – | – | – | – | – | – | – | – |
| NCI-H596 | – | – | – | – | – | 0.966 | 1.07 | 1.02 | 0.802 | 0.996 | 1.09 | 0.9 | 0.906 | 0.777 | 1.17 | 1.21 | 0.956 | 1.05 | 1.02 | 0.89 |
| NCI-H1299 | – | – | – | – | – | 1.01 | 1.03 | 1.03 | 1.01 | 1.05 | 1.12 | 1.16 | 1.11 | 1.13 | 0.95 | 1.04 | 0.936 | 1.03 | 1.04 | 1.12 |
| NCI-H1395 | 0.636 | 0.69 | 0.638 | 0.589 | 0.647 | – | – | – | – | – | 1.17 | 1.07 | 1.06 | 0.932 | 0.913 | 1.03 | 0.948 | 1.1 | 0.905 | 0.93 |
| NCI-H1563 | – | – | – | – | – | 0.92 | 0.875 | 0.904 | 0.824 | 1.08 | 0.907 | 0.953 | 0.912 | 0.893 | 0.946 | 0.966 | 1.04 | 0.844 | 1.21 | 1.02 |
| NCI-H1623 | – | – | – | – | – | – | – | – | – | – | 1.05 | 0.695 | 0.828 | 0.874 | – | – | – | – | – | 0.783 |
| NCI-H1648 | 0.237 | 0.275 | 0.248 | 0.228 | 0.283 | – | – | – | – | – | – | – | – | – | – | – | – | – | – | – |
| NCI-H1703 | – | – | – | – | – | 0.243 | 0.237 | 0.235 | 0.194 | 0.154 | 0.399 | 0.356 | 0.427 | 0.37 | – | 0.587 | 0.337 | 0.282 | 0.231 | 0.305 |
| NCI-H1792 | 0.634 | 0.707 | 0.653 | 0.671 | 0.682 | 0.848 | 1.19 | 0.858 | 0.946 | 0.975 | – | – | – | – | 0.78 | 1.13 | 0.846 | 0.862 | 0.85 | – |
| NCI-H1793 | 0.326 | 0.318 | 0.304 | 0.31 | 0.293 | – | – | – | – | – | 1.07 | 0.645 | 0.678 | 0.617 | 0.95 | 1.15 | 0.571 | 0.508 | 0.594 | 0.738 |
| NCI-H1944 | 0.351 | 0.343 | 0.311 | 0.333 | 0.371 | – | – | – | – | – | 0.938 | 0.9 | 0.895 | 0.867 | – | 0.858 | 0.793 | 0.756 | 0.884 | 1.04 |
| NCI-H2170 | 0.429 | 0.388 | 0.375 | 0.392 | 0.393 | – | – | – | – | – | 0.999 | 1 | 0.949 | 0.974 | 0.263 | 0.302 | 0.16 | 0.353 | 0.27 | 1.01 |
| NCI-H2342 | 0.537 | 0.563 | 0.467 | 0.532 | 0.535 | – | – | – | – | – | 1.16 | 1.08 | 1.06 | 0.799 | – | – | – | – | – | 1.09 |
| SK-MES-1 | 0.323 | 0.338 | 0.335 | 0.28 | 0.201 | – | – | – | – | – | 1.1 | 0.948 | 1.09 | 0.802 | 0.468 | 0.497 | 0.42 | 0.448 | 0.396 | 0.936 |
| SW 900 | 0.621 | 0.53 | 0.559 | 0.567 | 0.551 | – | – | – | – | – | 0.952 | 0.837 | 0.695 | 0.968 | – | – | – | – | – | 0.848 |
